From ChEMBL document CHEMBL1131975, “Synthesis and antitumor activity of bithienyl-pyrimidine derivatives with electrostatic binding side chains” (Bioorg Med Chem Lett, 1999) come the findings set out here.

Converted amounts (≈) assume the structure as drawn.

One test relates to HEp-2. The test can be described thus: In vitro cytotoxicity against human larynx carcinoma (Hep-2). In kind it is functional, cell-based.
Another test has as its system KB. Nature of the test: In vitro cytotoxicity against human oral epidermoid carcinoma (KB) cells. In kind it is functional, cell-based.
Another test relates to Nucleic Acid. Nature of the test: Evaluated for binding affinity with DNA at a pH of 8 by Fluorimetric method. Type of test: nucleic-acid assay.
The subject of a further test is COLO 205. The test can be described thus: In vitro cytotoxicity against human colon carcinoma (Colon-205) cells. Type of test: functional, cell-based.
In another test the test system is HeLa. Nature of the test: In vitro cytotoxicity against human cervical carcinoma (Hela) cells at dose 50 ug/mL. Type of test: functional, cell-based.

Regarding `CN(C)CCSc1nccc(-c2ccc(-c3cccs3)s2)n1`, the IC50 came out at 50 µg/mL (≈ 144 µM) in the test on HEp-2, 50 µg/mL (≈ 144 µM) in the test with KB, 30 µg/mL (≈ 86.3 µM) in the test on COLO 205 and 25 µg/mL (≈ 71.9 µM) with HeLa. Besides, in the test on Nucleic Acid, the K ass came out at 6.5e+06 M⁻¹.

For `CN(C)CCSc1nccc(-c2cccs2)n1`, the IC50 in the test on HEp-2, with KB, with COLO 205 and in the test with HeLa was more than 50 µg/mL each time.

As for `CN(C)CCOc1nccc(-c2cccs2)n1`, the IC50 in the test with HEp-2, with KB, in the test on COLO 205 and with HeLa was more than 50 µg/mL in each case.

Consider `CN(C)CCCOc1nccc(-c2ccc(-c3cccs3)s2)n1`, for which the IC50 in the test with HEp-2 was 11 µg/mL (≈ 31.8 µM); with KB it was 5 µg/mL (≈ 14.5 µM); in the test with COLO 205, 7 µg/mL (≈ 20.3 µM); in the test with HeLa it was 7 µg/mL (≈ 20.3 µM). This compound also returned a K ass with Nucleic Acid of 3e+07 M⁻¹.

As to `CN(C)CCOc1nccc(-c2ccc(-c3cccs3)s2)n1`, the IC50 in the test on HEp-2 was determined as 16 µg/mL (≈ 48.3 µM); with KB it was 17 µg/mL (≈ 51.3 µM); in the test on COLO 205, 12 µg/mL (≈ 36.2 µM); in the test with HeLa, 15 µg/mL (≈ 45.3 µM). Also, the K ass in the test on Nucleic Acid amounted to 2.1e+07 M⁻¹.

In the case of `CN(C)CCCOc1nccc(-c2cccs2)n1`, the IC50 with HEp-2, in the test on KB, with COLO 205 and in the test with HeLa was more than 50 µg/mL throughout.
